Test results from patent publication US20090326037A1 (priority 2005, published 2009).
Where a name gives a salt, the structure may show the parent alone.

Tested on: influenza A/Singapore/1/57 virus
Test: microbe, parasite or virus in culture
Assay type: cell-based

SMILES: CCOC(=O)c1c(CSc2ccccc2)n(C)c2cc(Br)c(O)c(CN(C)C)c12 [Arbidol, 1-methyl-2-phenylthiomethyl-3-carbethoxy-4-dimethylaminomethyl-5-oxy-6-bromindol hydrochloride]
- suppression of virus reproduction (1 μg of arbidol with 10-12 mg of zanamivir or oseltamivir): 100%
- Percent of inhibition of OD 490 (A or B 0.3 μg/ml + Zanamivir 0.3 μg, added 2 hours after infection): 20%
- Percent of inhibition of OD 490 (A or B 0.3 μg/ml + Zanamivir 1 μg, added 2 hours after infection): 30%
- Percent of inhibition of OD 490 (A or B 0.3 μg/ml + Zanamivir 3.3 μg, added 2 hours after infection): 37%
- Percent of inhibition of OD 490 (A or B 0.3 μg/ml + Zanamivir 10 μg, added 2 hours after infection): 48%
- Percent of inhibition of OD 490 (A or B 0.3 μg/ml + Zanamivir 33 μg, added 2 hours after infection): 60%
- Percent of inhibition of OD 490 (A or B 1 μg/ml + Zanamivir 0.3 μg, added 2 hours after infection): 33%
- Percent of inhibition of OD 490 (A or B 1 μg/ml + Zanamivir 3.3 μg, added 2 hours after infection): 46%
- Percent of inhibition of OD 490 (A or B 1 μg/ml + Zanamivir 10 μg, added 2 hours after infection): 100%
- Percent of inhibition of OD 490 (A or B 1 μg/ml + Zanamivir 33 μg, added 2 hours after infection): 100%
- Percent of inhibition of OD 490 (A or B 3 μg/ml + Zanamivir 0.3 μg, added 2 hours after infection): 60%
- Percent of inhibition of OD 490 (A or B 3 μg/ml + Zanamivir 1 μg, added 2 hours after infection): 58%
- Percent of inhibition of OD 490 (A or B 3 μg/ml + Zanamivir 3.3 μg, added 2 hours after infection): 93%
- Percent of inhibition of OD 490 (A or B 3 μg/ml + Zanamivir 10 μg, added 2 hours after infection): 100%
- Percent of inhibition of OD 490 (A or B 3 μg/ml + Zanamivir 33 μg, added 2 hours after infection): 100%
- Percent of inhibition of OD 490 (A or B 5 μg/ml + Zanamivir 0.3 μg, added 2 hours after infection): 69%
- Percent of inhibition of OD 490 (A or B 5 μg/ml + Zanamivir 1 μg, added 2 hours after infection): 85%
- Percent of inhibition of OD 490 (A or B 5 μg/ml + Zanamivir 3.3 μg, added 2 hours after infection): 88%
- Percent of inhibition of OD 490 (A or B 5 μg/ml + Zanamivir 10 μg, added 2 hours after infection): 100%
- Percent of inhibition of OD 490 (A or B 5 μg/ml + Zanamivir 33 μg, added 2 hours after infection): 100%
- Percent of inhibition of OD 490 (A or B 10 μg/ml + Zanamivir 0.3 μg, added 2 hours after infection): 71%
- Percent of inhibition of OD 490 (A or B 10 μg/ml + Zanamivir 1 μg, added 2 hours after infection): 85%
- Percent of inhibition of OD 490 (A or B 10 μg/ml + Zanamivir 3.3 μg, added 2 hours after infection): 98%
- Percent of inhibition of OD 490 (A or B 10 μg/ml + Zanamivir 10 μg, added 2 hours after infection): 100, 100%
- Percent of inhibition of OD 490 (A or B 10 μg/ml + Zanamivir 33 μg, added 2 hours after infection): 100, 100%
- Percent of inhibition of OD 490 (A or B 10 μg/ml alone (Zanamivir 0), added 2 hours after infection): 22%
- Percent of inhibition of OD 490 (A or C 0.3 μg/ml + Oseltamivir 0.4 μg, added 2 hours after infection): 35%
- Percent of inhibition of OD 490 (A or C 0.3 μg/ml + Oseltamivir 4.1 μg, added 2 hours after infection): 37%
- Percent of inhibition of OD 490 (A or C 0.3 μg/ml + Oseltamivir 12.3 μg, added 2 hours after infection): 47%
- Percent of inhibition of OD 490 (A or C 1 μg/ml + Oseltamivir 0.4 μg, added 2 hours after infection): 48%
- Percent of inhibition of OD 490 (A or C 1 μg/ml + Oseltamivir 1.2 μg, added 2 hours after infection): 59%
- Percent of inhibition of OD 490 (A or C 1 μg/ml + Oseltamivir 4.1 μg, added 2 hours after infection): 56%
- Percent of inhibition of OD 490 (A or C 1 μg/ml + Oseltamivir 12.3 μg, added 2 hours after infection): 100%
- Percent of inhibition of OD 490 (A or C 1 μg/ml + Oseltamivir 41 μg, added 2 hours after infection): 100%
- Percent of inhibition of OD 490 (A or C 3 μg/ml + Oseltamivir 0.4 μg, added 2 hours after infection): 62%
- Percent of inhibition of OD 490 (A or C 3 μg/ml + Oseltamivir 1.2 μg, added 2 hours after infection): 58%
- Percent of inhibition of OD 490 (A or C 3 μg/ml + Oseltamivir 4.1 μg, added 2 hours after infection): 90%
- Percent of inhibition of OD 490 (A or C 3 μg/ml + Oseltamivir 12.3 μg, added 2 hours after infection): 100%
- Percent of inhibition of OD 490 (A or C 3 μg/ml + Oseltamivir 41 μg, added 2 hours after infection): 100, 100%
- Percent of inhibition of OD 490 (A or C 5 μg/ml + Oseltamivir 0.4 μg, added 2 hours after infection): 79%
- Percent of inhibition of OD 490 (A or C 5 μg/ml + Oseltamivir 1.2 μg, added 2 hours after infection): 84%
- Percent of inhibition of OD 490 (A or C 5 μg/ml + Oseltamivir 4.1 μg, added 2 hours after infection): 100%
- Percent of inhibition of OD 490 (A or C 5 μg/ml + Oseltamivir 12.3 μg, added 2 hours after infection): 98%
- Percent of inhibition of OD 490 (A or C 5 μg/ml + Oseltamivir 41 μg, added 2 hours after infection): 100, 100%
- Percent of inhibition of OD 490 (A or C 10 μg/ml + Oseltamivir 0.4 μg, added 2 hours after infection): 70%
- Percent of inhibition of OD 490 (A or C 10 μg/ml + Oseltamivir 1.2 μg, added 2 hours after infection): 85%
- Percent of inhibition of OD 490 (A or C 10 μg/ml + Oseltamivir 4.1 μg, added 2 hours after infection): 100%
- Percent of inhibition of OD 490 (A or C 10 μg/ml + Oseltamivir 12.3 μg, added 2 hours after infection): 100%
- Percent of inhibition of OD 490 (A or C 10 μg/ml + Oseltamivir 41 μg, added 2 hours after infection): 100%
- Percent of inhibition of OD 490 (A or C 10 μg/ml alone (Oseltamivir 0), added 2 hours after infection): 20%
- Percent of inhibition of OD 490 (A or D 1 μg/ml + Amantadin 0.3 μg/ml, added 30 min prior to infection): 30%
- Percent of inhibition of OD 490 (A or D 1 μg/ml + Amantadin 1 μg/ml, added 30 min prior to infection): 30%
- Percent of inhibition of OD 490 (A or D 1 μg/ml + Amantadin 5 μg/ml, added 30 min prior to infection): 52%
- Percent of inhibition of OD 490 (A or D 1 μg/ml + Amantadin 10 μg/ml, added 30 min prior to infection): 59%
- Percent of inhibition of OD 490 (A or D 1 μg/ml + Remantadin 0.3 μg/ml, added 30 min prior to infection): 31%
- Percent of inhibition of OD 490 (A or D 1 μg/ml + Remantadin 1 μg/ml, added 30 min prior to infection): 33%
- Percent of inhibition of OD 490 (A or D 1 μg/ml + Remantadin 5 μg/ml, added 30 min prior to infection): 50%
- Percent of inhibition of OD 490 (A or D 1 μg/ml + Remantadin 10 μg/ml, added 30 min prior to infection): 59%
- Percent of inhibition of OD 490 (A or D 1 μg/ml alone (Amantadin 0), added 30 min prior to infection): 30%
- Percent of inhibition of OD 490 (A or D 1 μg/ml alone (Remantadin 0), added 30 min prior to infection): 30%
